The values that follow are results of earlier work, collected in publication PMC11369081, “Molecular mechanism of prolactin-releasing peptide recognition and signaling via its G protein-coupled receptor” (Cell Discovery, 2024).

Ends that are not written are not given here.

This data set relates to PrRPR. Particulars: cited from earlier work. As for the experimental part:
In both structures, the intramolecular motif of W8, Y9, and R12 within PrRP20 stabilizes its α-helical structure (Fig. 2h). […] Th ...

For the substance “PrRP20 analog (W8–F20): PrRP20 analog (W8–F20) (WYASRGIRPVGRF; ends and bridges not checked; UniProt P81277 41-53, looked up, fragment)”, the activity in vitro entry (structure-activity relationship studies, ref [21]) is “did not show reduced activity in vitro”. With “C-terminal heptapeptide (I14–F20): shortest effective analog is a C-terminal heptapeptide (I14–F20) (IRPVGRF; ends and bridges not checked; UniProt P81277 47-53, looked up, fragment)”, the “affinity of shortest effective analog” value (deletion analysis of PrRP20 N-terminal region, vs PrRP20, ref [9]) is given as “substantially lower affinity”.
